Assay results from patent US11959083B2, “Immunosuppression-reverting oligonucleotides inhibiting the expression of CD39” (Secarna Pharmaceuticals GmbH & Co. KG, priority 2016, dated 2024).
l = locked nucleic acid (LNA); d = 2'-deoxy (DNA)

Legend:
hCD39 mRNA [1] = assay: hCD39 mRNA knockdown efficacy screen in A-172 cells (single dose, gymnotic delivery, QuantiGene Singleplex); format: cell-based, human; conditions: 10 μM, 3 days; for Mean hCD39 mRNA expression (relative to untreated cells set as 1): first screening round; for Mean hCD39 mRNA expression (relative to untreated cells set as 1) / Relative hCD39 mRNA expression (compared to non-treated cells): normalized to HPRT1; for Relative hCD39 mRNA expression (compared to non-treated cells): second screening round
Procedure: (§1) FIGS. 2A to 2D depict hCD39 mRNA knockdown efficacy of hCD39 antisense oligonucleotides in human cancer cell lines HDLM-2 (human Hodgkin Lymphoma) in a first and second screening round (FIGS. 2A-1 and 2A-2) and 2B-1 and 2B-2 and A-172 (human glioblastoma) in a first and second screening round (FIGS. 2C-1 and 2C-2) and 2D-1 and 2D-2. HDLM-2 and A-172 cells were treated for 3 days with 10 μM of the respective antisense oligonucleotide. As negative control, cells were treated with neg1, an antisense oligonucleotide having the sequence CGTTTAGGCTATGTACTT (SEQ ID NO:99) (described in WO2014154843 A1). Residual hCD39 mRNA expression relative to untreated cells is depicted. Expression values were normalized to expression of the housekeeping gene HPRT1. Depicted is the mean of triplicate wells+/−SD.
(§2) FIGS. 6A-6B depicts a third screening round where further antisense oligonucleotides were designed. These antisense oligonucleotides were based on efficient antisense oligonucleotides from the first and second screening round. Therefore, hCD39 antisense oligonucleotides were tested in human cancer cell lines HDLM-2 (human Hodgkin's lymphoma) (FIG. 6A) and A-172 (human glioblastoma) (FIG. 6B). HDLM-2 and A-172 cells were treated for 3 days with 10 μM of the respective antisense oligonucleotide. […] Residual hCD39 mRNA expression relative to untreated cells (set as 1) is depicted.
(§3) In order to analyze the efficacy of hCD39 antisense oligonucleotides of the present invention with regard to the knockdown of hCD39 mRNA expression in cancer cell lines, HDLM-2 (human Hodgkin Lymphoma, DSMZ) and A-172 (human glioblastoma, ATCC) cells were treated with a single dose (concentration: 10 μM without addition of any transfection reagent; this process is called gymnotic delivery) of the respective antisense oligonucleotide as shown in FIG. 2A to 2D. hCD39 and HPRT1 mRNA expression was analyzed three days later using the QuantiGene Singleplex assay (Affymetrix) and hCD39 expression values were normalized to HPRT1 values. […] Values of the mean normalized mRNA expression of hCD39 compared to non-treated cells are listed for A-172 (Table 4 for first screening round and Table 5 for second screening round) and HDLM-2 cells (Table 6 for first screening round and Table 7 for second screening round) in the following:
(§4) For a third screening round, new antisense oligonucleotides were designed. These antisense oligonucleotides were based on efficient antisense oligonucleotides from the first screening round with modifications in length, exact position on mRNA and chemical modification pattern. Therefore, hCD39 antisense oligonucleotides were tested in human cancer cell lines (FIG. 6A, Table 10) HDLM-2 (human Hodgkin's lymphoma) and (FIG. 6B, Table 11) A-172 (human glioblastoma). HDLM-2 and A-172 cells were treated for 3 days with 10 μM of the respective antisense oligonucleotide. […] Residual hCD39 mRNA expression relative to untreated cells (set as 1) is depicted.

hCD39 mRNA [2] = assay: hCD39 mRNA knockdown efficacy screen in HDLM-2 cells (single dose, gymnotic delivery, QuantiGene Singleplex); format: cell-based, human; set-up: key to Relative hCD39 mRNA expression (compared to non-treated cells): *: values are below detection limit; conditions: 10 μM, 3 days; for Mean hCD39 mRNA expression normalized to HPRT1 relative to untreated control = 1: first screening round; for Relative hCD39 mRNA expression (compared to non-treated cells): second screening round, normalized to HPRT1
Procedure: as §1, §2, §3, §4

Row | Substance | Mean hCD39 mRNA expression (relative to untreated cells set as 1) (hCD39 mRNA [1]) | Relative hCD39 mRNA expression (compared to non-treated cells) (hCD39 mRNA [1]) | Mean hCD39 mRNA expression normalized to HPRT1 relative to untreated control = 1 (hCD39 mRNA [2]) | Relative hCD39 mRNA expression (compared to non-treated cells) (hCD39 mRNA [2]) | Residual hCD39 mRNA expression relative to untreated cells (set as 1) (hCD39 mRNA [1]; third screening round) | Residual hCD39 mRNA expression relative to untreated cells (set as 1) (hCD39 mRNA [2]; third screening round)
1 | +G*+A*C*T*A*T*G*C*T*G*A*A*C*+C*+A*+C (antisense GACTATGCTGAACCAC; sugars from the 5' end l2 d11 l3, all phosphorothioate, methylation of C not given here) [A04023H] | 0.09 | 0.10 | 0.06 | 0.06 | – | –
2 | +A*+G*A*G*T*G*C*C*T*G*A*T*C*C*+T*+T (antisense AGAGTGCCTGATCCTT; sugars from the 5' end l2 d12 l2, all phosphorothioate, methylation of C not given here) [A04025H] | 0.13 | 0.13 | 0.08 | 0.08 | – | –
3 | +A*+C*+T*C*C*A*G*C*G*T*A*A*+G*+A*+T (antisense ACTCCAGCGTAAGAT; sugars from the 5' end l3 d9 l3, all phosphorothioate, methylation of C not given here) [A04013H] | – | 0.75 | 0.22 | 0.22 | – | –
4 | +C*+T*+A*T*G*C*T*G*A*A*C*C*+A*+C*+C (antisense CTATGCTGAACCACC; sugars from the 5' end l3 d9 l3, all phosphorothioate, methylation of C not given here) [A04005H] | 0.11 | 0.11 | 0.21 | 0.21 | – | –
5 | +G*+G*+A*C*A*A*T*G*G*T*T*G*C*+T*C*+A (antisense GGACAATGGTTGCTCA; sugars from the 5' end l3 d10 l1 d1 l1, all phosphorothioate, methylation of C not given here) [A04030H] | 0.19 | 0.10 | 0.07 | 0.38 | – | –
6 | +T*+G*+A*T*A*G*C*C*T*T*G*C*+A*+G*+A (antisense TGATAGCCTTGCAGA; sugars from the 5' end l3 d9 l3, all phosphorothioate, methylation of C not given here) [A04014H] | 0.27 | 0.27 | 0.17 | 0.17 | – | –
7 | +A*+G*+G*C*G*A*A*A*T*T*G*C*+A*+G*+A (antisense AGGCGAAATTGCAGA; sugars from the 5' end l3 d9 l3, all phosphorothioate, methylation of C not given here) [A04008H] | 0.46 | 0.46 | 0.20 | 0.20 | – | –
8 | +A*+G*G*A*T*A*G*T*C*T*T*G*T*C*+T*+C (antisense AGGATAGTCTTGTCTC; sugars from the 5' end l2 d12 l2, all phosphorothioate, methylation of C not given here) [A04034H] | 0.28 | 0.15 | 0.06 | 0.06 | – | –
9 | +C*+T*+G*A*C*T*G*A*A*T*T*T*G*+C*+C*+C (antisense CTGACTGAATTTGCCC; sugars from the 5' end l3 d10 l3, all phosphorothioate, methylation of C not given here) [A04021H] | 0.16 | 0.16 | 0.11 | 0.11 | – | –
10 | +T*+A*+C*T*C*C*A*G*C*G*T*A*A*+G*+A*+T (antisense TACTCCAGCGTAAGAT; sugars from the 5' end l3 d10 l3, all phosphorothioate, methylation of C not given here) [A04027H] | 0.58 | 0.58 | 0.24 | 0.24 | – | –
11 | +A*+A*+G*G*T*C*A*C*T*T*A*C*G*T*+T*+C*+A (antisense AAGGTCACTTACGTTCA; sugars from the 5' end l3 d11 l3, all phosphorothioate, methylation of C not given here) [A04046H] | 0.14 | 0.08 | 0.04 | 0.37 | – | –
12 | +G*+G*+C*G*A*A*A*T*T*G*C*+A*+G*+A (antisense GGCGAAATTGCAGA; sugars from the 5' end l3 d8 l3, all phosphorothioate, methylation of C not given here) [A04001H] | 0.58 | 0.58 | 0.25 | 0.25 | – | –
13 | +G*+C*+C*C*C*A*A*A*A*T*C*C*C*C*+C*+T*+G (antisense GCCCCAAAATCCCCCTG; sugars from the 5' end l3 d11 l3, all phosphorothioate, methylation of C not given here) [A04047H] | – | 0.43 | – | * | – | –
14 | +C*+C*C*T*G*G*A*T*C*T*T*G*C*C*+A*+A*+T (antisense CCCTGGATCTTGCCAAT; sugars from the 5' end l2 d12 l3, all phosphorothioate, methylation of C not given here) [A04049H] | – | 0.45 | – | * | – | –
15 | +G*+A*+G*A*G*A*A*T*G*T*A*G*G*T*+A*C*+C (antisense GAGAGAATGTAGGTACC; sugars from the 5' end l3 d11 l1 d1 l1, all phosphorothioate, methylation of C not given here) [A04048H] | 0.09 | 0.05 | 0.05 | 0.36 | – | –
16 | +T*+A*+G*T*A*A*G*C*C*C*T*G*+A*+T*+G (antisense TAGTAAGCCCTGATG; sugars from the 5' end l3 d9 l3, all phosphorothioate, methylation of C not given here) [A04055H] | – | – | – | – | 0.52 | 0.03
17 | +A*+A*+A*G*T*C*C*A*G*C*C*G*G*C*G*+T*+C (antisense AAAGTCCAGCCGGCGTC; sugars from the 5' end l3 d12 l2, all phosphorothioate, methylation of C not given here) [A04050H] | 0.55 | 0.28 | 0.11 | 0.90 | – | –
18 | +G*T*+C*A*A*T*C*C*T*G*C*T*C*A*+A*+C (antisense GTCAATCCTGCTCAAC; sugars from the 5' end l1 d1 l1 d11 l2, all phosphorothioate, methylation of C not given here) [A04038H] | 0.56 | 0.29 | 0.20 | * | – | –
